Paper PMC7023222, “Ionic Liquid Forms of the Antimalarial Lumefantrine in Combination with LFCS Type IIIB Lipid-Based Formulations Preferentially Increase Lipid Solubility, In Vitro Solubilization Behavior and In Vivo Exposure” (Pharmaceutics, 2019)
Several values for one entry are separate records, joined by “and”; a condition that tells them apart may be missing. Identical values can stand only once. Like-named read-outs stand apart in the source and are kept apart here.

Tests used:
[1] = Method: Equilibrium Solubility Studies. […] Each equilibrium solubility experiment was completed in triplicate. Equilibrium solubility was defined when solubility measured across two consecutive days varied less than 5%. The samples were allowed to equilibrate at 37 °C and were vortex-mixed twice a day to ensure the compounds were well dispersed in the LBF. The samples were left to equilibrate for at least 3 days. […] At each time point, samples were then centrifuged at 37 °C (14,800 rpm (21,000× g), Thermo Scientific, Heraeus Pico 21 Centrifuge) and aliquots of 20 mg were taken from the supernatant and dissolved in 1 mL of chloroform: methanol (2:1, v/v). The chloroform: methanol solution was then diluted 20-fold with water: acetonitrile (1:1, v/v). The samples were then assayed by HPLC to determine the concentration of compound in formulation.
[2] = In vitro dispersion and digestion test of LBFs (drug solubilization); type: physicochemical; conditions: for % of drug present in the aqueous phase compared to total drug loading: end of digestion phase (60 min), loading 80% of equilibrium solubility, n = 3
Method: In Vitro Drug Solubilization. […] Drug loading in each formulation was at 80% of the equilibrium solubility of the drug or API-IL in that formulation to maintain a consistent thermodynamic activity across all LBFs. In vitro dispersion and digestion experiments were conducted using a pH-stat apparatus (Metrohm® AG, Herisau, Switzerland), which comprised a Titrando 802 propeller stirrer/804 Ti Stand combination, a glass pH electrode (iUnitrode), and two 800 Dosino dosing units coupled to 10 mL autoburettes (Metrohm® AG). The pH-stat was connected to a PC and operated via Tiamo 2.0 software (Metrohm®). […] The pancreatic enzyme was prepared by mixing 1 g of porcine pancreatin with 5 mL of lipolysis buffer and 20 µL of 5 M NaOH. After mixing, this was then centrifuged at 2880× g at 5 °C for 10 min (Crown Scientific, Eppendorf AG Centrifuge 5804 R, Sydney Australia) and the supernatant used as the enzyme solution. The lipolysis buffer was prepared by dissolving 0.474 g of tris maleate, 0.206 g of CaCl2·H2O, and 8.775 g of NaCl in one liter of distilled water to form a 2 mM tris maleate 1.4 mM CaCl2·H2O 150 mM NaCl buffer; the pH was adjusted to 6.5 using NaOH. The micellar solution was prepared by dissolving 0.783 g of NaTDC and 0.291 g of PC in 500 mL of lipolysis buffer to form a 3 mM NaTDC 0.75 mM PC solution. […] This drop in pH was detected by the pH-stat controller, which then titrated the FA produced using an autoburette that added NaOH to keep the pH at a set point (0.6 M NaOH for MCFs, and 0.2 M NaOH for LCFs). By knowing the quantity of NaOH added and assuming stoichiometric titration, this indirectly quantified the extent of FA production (as a measure of digestion). […] The mass of the drug recovered in the aqueous phase and the pellet phase was then quantified by HPLC [35, 36]. The supernatant and pellet samples were diluted with acetonitrile (1:10 v/v) and then mobile phase (1:10 v/v), and lumefantrine concentrations in the samples determined using HPLC [35, 36, 37, 38].

[3] = Supersaturation during in vitro dispersion/digestion testing; type: physicochemical; conditions: for maximum supersaturation ratio SR^Mdisp (APmax/APdigest): dispersion, time 0 min; for maximum supersaturation ratio SR^Mdig (APmax/APdigest): end of digestion, 60 min
Method: Supersaturation During In Vitro Testing. The degree of supersaturation of drug concentrations in the aqueous phase during formulation dispersion/digestion was assessed by comparing the measured aqueous phase concentration to equilibrium drug solubility in blank aqueous phase obtained by dispersion and digestion of blank (i.e., non-drug loaded) formulation under identical conditions. Due to the physical state of lumefantrine docusate (i.e., an amorphous semi-solid), the equilibrium solubility assessment was conducted by dissolving 3 mg of IL in 10 µL of ethanol in a microcentrifuge tube and then adding 200 mg of aqueous phase obtained from the blank digestions (n = 3 for each time point for each formulation). The contents were subsequently vortex-mixed for 30 s. […] Supersaturation was assessed at 4 time points during the in vitro dispersion and digestion tests (0 min (end dispersion), and 5, 30, and 60 min (post digestion)) for the Type II-MC, IIIB-MC, IIIB-LC, and IV formulations.
The supersaturation ratio (SR) provides an indication of thermodynamic activity and the likelihood of either drug precipitation, or enhanced absorption from an LBF, where the higher the number, the more supersaturated and therefore the more likely to precipitate during in vitro digestion. The maximum supersaturation ratio (SR^M) provides a measure of the maximum supersaturation pressure that would be generated by digestion of an LBF, assuming no precipitation and is calculated from the following:(1) SR^M=APmax/APdigest where APmax is the maximum possible aqueous phase concentration of drug during the in vitro dispersion and digestion test (i.e., in the absence of any precipitation), and APdigest is the equilibrium solubility of the drug in blank aqueous phase (i.e., where the aqueous phase was obtained from a digestion of blank LBF). Williams et al. have previously proposed that sustainable supersaturation most commonly occurs when SR^M < 3, and that exceeding this threshold increases the likelihood of drug precipitation during in vitro dispersion and digestion tests. Only the Type II-MC, IIIB-MC, IIIB-LC, and IV formulations were evaluated as these were the four formulations chosen to proceed to the in vivo bioavailability studies. The figures also depict APmax, as well as the drug solubility in the aqueous colloidal phase of the blank LBF (APdigest). […] This was most apparent at early time points for the Type II-MCF formulation where SR^M was ~20 and at later time points post digestion for the Type IIIB-MCF where SR^M was >40. […] Similarly, the SR^M for the Type IIIB-MCF at the end of digestion was the highest, but majority of lumefantrine docusate remained solubilized at 60 min (69% solubilized).

[4] = Oral bioavailability study in rats; type: in vivo, male Sprague-Dawley rats
Method: Oral Bioavailability Studies. […] Experiments were conducted in fasted male Sprague-Dawley rats (240–320 g). The day prior to the study, the rats were anaesthetized with isoflurane and the right carotid artery was surgically cannulated with polyethylene tubing to facilitate blood collection (procedure described previously) [40]. Animals were allowed to recover overnight and were fasted up to 12 h prior to and 8 h after dose administration, with water provided ad libitum. The rats were fed 8 h after dosing.
Animals were then administered a further 0.5 mL of water. […] The aqueous suspension comprised 0.5% w/v sodium carboxymethylcellulose, 0.4% w/v Tween 80, and 0.9% NaCl in water.
Blood samples were collected via the carotid artery cannula at pre-dose, 0.5, 1, 2, 3, 4, 6, 8, 10, and 24 h after oral administration of the formulations. Blood samples were centrifuged at 6700× g for 5 min and plasma was collected and stored at −20 °C until assayed by LC-MS. Statistically significant differences between formulations were determined by one-way analysis of variance (ANOVA) at a test significance level of α ≤ 0.05, followed by a Tukey’s multiple comparisons test.
Plasma Sample Preparation and Analysis. Lumefantrine concentrations in rat plasma were assayed via LC-MS using a modification of a previously published assay for lumefantrine [41]. […] Plasma samples or calibration standards (50 µL) were spiked with 10 µL of internal standard (halofantrine hydrochloride, 1000 ng/mL in 1:1 v/v water: acetonitrile) followed by vortex mixing for 10 s. To precipitate plasma proteins, acetonitrile (200 µL) was added and samples vortex mixed for 1 min. The samples were then allowed to stand at room temperature for 30 min. After centrifugation at 10,000× g for 10 min at room temperature, 150 µL of supernatant was transferred into vials for analysis.
Lumefantrine plasma samples were analyzed using a Shimadzu LCMS-8050 system (Shimadzu Scientific Instruments, Kyoto, Japan) consisting of a CBM-20A system controller, a DGU-20A5R degassing unit, two Nexera X2 LC-30 AD liquid chromatograph pumps, a Nexera X2 SIL-30AC autosampler, a CTO-20A column oven (held at 40 °C), and a triple quadrupole mass spectrometer with an electrospray ionization (ESI) interface. Data acquisition and processing was performed using LC-MS Solutions software (Shimadzu, Kyoto, Japan). The desolvation line (DL) and heat block were kept at 250 °C and 400 °C, respectively. The nebulizing gas flow and drying gas flow rates were 3.0 L/min and 10.0 L/min, respectively. Mobile phase A was Milli-Q water containing 0.1% w/v formic acid, and mobile phase B was acetonitrile containing 0.1% w/v formic acid. […] Mobile phase B was then held at 80% for 0.5 min, followed by a linear decrease to 30% over the next 0.5 min after which conditions were held for another 0.5 min.

[5] = parameters: method as in PMID 30376336; conditions: cited from earlier work
[6] = cited from earlier work
[7] = parameters: method as in PMID 23531442; conditions: cited from earlier work

**Q.** With `CCCCC(CC)COC(=O)CC(C(=O)OCC(CC)CCCC)S(=O)(=O)O.CCCCN(CCCC)CC(O)c1cc(Cl)cc2c1-c1ccc(Cl)cc1C2=Cc1ccc(Cl)cc1` (racemic) [lumefantrine docusate] as the molecule, how does the “miscibility in the Type IV formulation” value [1] read?
**A.** Its value is “miscible”.

**Q.** What about the “solubility in LBF, fold higher than lumefantrine free base” value [1] of the same molecule?
**A.** Its value is 2- to 80 fold.

**Q.** And the “solubility in the Type IV formulation (proportions)” value [1]?
**A.** Its value is > 1:1 w/w.

**Q.** And the “% of drug present in the aqueous phase compared to total drug loading” value ([2]; Type IIIB-LCF)?
**A.** Its value is 89%.

**Q.** What about the “% of drug present in the aqueous phase compared to total drug loading” value ([2]; Type IIIB-MCF) of the same molecule?
**A.** Its value is 69%.

**Q.** And the “drug concentration in the aqueous phase, fold higher than the equivalent lumefantrine free base formulations” value ([2]; after dispersion and digestion, range over all LBFs)?
**A.** The value was 2-to-55 fold.

**Q.** And the “maximum supersaturation ratio SR^Mdisp (APmax/APdigest)” value ([3]; Type II-MCF)?
**A.** The value was ~ 20 and 19.9.

**Q.** And the “supersaturation ratio SR (measured aqueous phase concentration / equilibrium solubility in blank aqueous phase)” value ([3]; Type II-MCF, during dispersion)?
**A.** The value was 5.5.

**Q.** What about the “maximum supersaturation ratio SR^Mdig (APmax/APdigest)” value ([3]; Type II-MCF) of the same molecule?
**A.** The value was 8.0.

**Q.** And the “maximum supersaturation ratio SR^Mdisp (APmax/APdigest)” value ([3]; Type IIIB-LCF)?
**A.** The value was 3.6.

**Q.** What about the “maximum supersaturation ratio SR^Mdig (APmax/APdigest)” value ([3]; Type IIIB-LCF) of the same molecule?
**A.** Its value is 7.9.

**Q.** And the “maximum supersaturation ratio SR^Mdisp (APmax/APdigest)” value ([3]; Type IIIB-MCF)?
**A.** The value was 5.7.

**Q.** And the “maximum supersaturation ratio SR^Mdig (APmax/APdigest)” value ([3]; Type IIIB-MCF)?
**A.** Its value is > 40 and 43.2.

**Q.** And the “supersaturation throughout the in vitro test” value ([3]; Type IV formulation)?
**A.** The value was “no supersaturation was evident”.

**Q.** And the “maximum supersaturation ratio SR^Mdisp (APmax/APdigest)” value ([3]; Type IV)?
**A.** The value was 6.3.

**Q.** What about the “maximum supersaturation ratio SR^Mdig (APmax/APdigest)” value ([3]; Type IV) of the same molecule?
**A.** The value was 8.1.

**Q.** And the “maximum supersaturation ratio SR^M” value ([3]; in all cases: Type II-MC, IIIB-MC, IIIB-LC and IV formulations)?
**A.** The value was “higher than 3”.

**Q.** What about the “exposure, fold enhanced when compared to the free base” value ([4]; IL in LBF vs free base suspensions 85 mg/kg) of the same molecule?
**A.** Its value is “up to 50 fold”.

**Q.** And the “increase in exposure after oral administration compared to aqueous suspension of the free base” value ([4]; Type IIIB LC formulation 65 mg/kg vs aqueous suspension 85 mg/kg)?
**A.** The value was ~ 50 fold.

**Q.** And the “increase in exposure after oral administration compared to lipid suspension of the free base” value ([4]; Type IIIB LC formulation 65 mg/kg vs free base suspension in Type IIIB-LCF 85 mg/kg)?
**A.** The value was ~ 10 fold.

**Q.** What about the “systemic exposure (AUC 0 to 24 h), statistical comparison” value ([4]; Type IIIB-LCF 65 mg/kg, one-way ANOVA, p < 0.05, n = 4) of the same molecule?
**A.** Its value is “significantly higher exposure than all other formulations tested”.

**Q.** What about the “systemic exposure (AUC 0 to 24 h), statistical comparison with both free base suspensions” value ([4]; Type IIIB-MCF 65 mg/kg, one-way ANOVA, p < 0.05, n = 4) of the same molecule?
**A.** The value was “significantly higher exposure”.

**Q.** For `CCCCC(CC)COC(=O)CC(C(=O)OCC(CC)CCCC)S(=O)(=O)O.COc1cc2nccc(Oc3ccc(NC(=O)C4(C(=O)Nc5ccc(F)cc5)CC4)cc3)c2cc1OC` [Cabozantinib docusate, cabozantinib docusate], which “bioavailability, fold enhanced compared to an aqueous suspension of cabozantinib free base” value ([5]; long-chain SEDDS) is on record?
**A.** The value was 1.8 fold.

**Q.** And the “bioavailability, fold enhanced compared to an aqueous suspension of cabozantinib free base” value ([5]; medium-chain SEDDS)?
**A.** Its value is 1.5 fold.

**Q.** With `C(=C\c1ccccc1)/CN1CCN(C(c2ccccc2)c2ccccc2)CC1.CCCCCCCCCCOS(=O)(=O)O` [cinnarizine decyl sulfate] as the molecule, how does the “exposure, fold higher than equivalent dose of cinnarizine free base as a suspension in the same SEDDS formulation” value ([6]; rats, SEDDS formulation) read?
**A.** Its value is ~ 2 fold.

**Q.** For `CCC(C)n1ncn(-c2ccc(N3CCN(c4ccc(OCC5COC(Cn6cncn6)(c6ccc(Cl)cc6Cl)O5)cc4)CC3)cc2)c1=O.CCCCC(CC)COC(=O)CC(C(=O)OCC(CC)CCCC)S(=O)(=O)O` (stereo not shown) [itraconazole docusate], which “exposure compared with the commercial formulation Sporanox” value ([6]; rat, in vivo) is on record?
**A.** Its value is “greater exposure”.

**Q.** What about the “exposure, fold higher than an itraconazole suspension of equal dose” value ([6]; rat, in vivo) of the same molecule?
**A.** Its value is ~ 20 fold.

**Q.** Which oral bioavailability [7] does the source give for `CCCCN(CCCC)CC(O)c1cc(Cl)cc2c1-c1ccc(Cl)cc1/C2=C/c1ccc(Cl)cc1` (stereo not shown) [lumefantrine] here?
**A.** Its oral bioavailability is 4–11%.
